# Source: publication PMC3914206
# What was measured:
# Experiment in all cases: KiNativ chemical proteomics profiling in HeLa and PC3 cell lysates
# [1] = target: T1, selected panels of kinases in HeLa and PC3 cell lysates (Homo sapiens, UniProt P08581); assay type: binding; settings: 10 uM, proteome PC3, labeling site Activation Loop
# T1 construct: endogenous in cells; host or cells: HeLa and PC3 cell lysates
# [2] = target: T2, selected panels of kinases in HeLa and PC3 cell lysates (Homo sapiens, UniProt Q9H2G2); assay type: binding; settings: 10 uM, SLK
# T2 construct: endogenous in cells; host or cells: HeLa and PC3 cell lysates
# [3] = target: T3, selected panels of kinases in HeLa and PC3 cell lysates (Homo sapiens, UniProt P53350); assay type: binding; settings: 10 uM; PLK1; peptide DLk[…]; proteome HEL; labeling site Lys2
# T3 construct: endogenous in cells; host or cells: HeLa and PC3 cell lysates
# [4] = target: T4, selected panels of kinases in HeLa and PC3 cell lysates (Homo sapiens, UniProt O14936); assay type: binding; settings: 10 uM; proteome PC3; peptide ETGQQFAVkIVDVAK; labeling site Lys1
# T4 construct: endogenous in cells; host or cells: HeLa and PC3 cell lysates
# [5] = target: T5, selected panels of kinases in HeLa and PC3 cell lysates (Homo sapiens, UniProt P00533); assay type: binding; settings: 10 uM, proteome PC3
# T5 construct: endogenous in cells; host or cells: HeLa and PC3 cell lysates
# [6] = target: T6, selected panels of kinases in HeLa and PC3 cell lysates (Homo sapiens, UniProt Q92918); assay type: binding; settings: 10 uM; proteome HEL; peptide […]kMVK; labeling site Lys1
# T6 construct: endogenous in cells; host or cells: HeLa and PC3 cell lysates
# [7] = target: T7, selected panels of kinases in HeLa and PC3 cell lysates (Homo sapiens, UniProt Q13233); assay type: binding; settings: 10 uM; proteome HEL; peptide DVk[…]; labeling site Lys2
# T7 construct: endogenous in cells; host or cells: HeLa and PC3 cell lysates
# [8] = target: T8, selected panels of kinases in HeLa and PC3 cell lysates (Homo sapiens, UniProt P51812); assay type: binding; settings: 10 uM
# T8 construct: endogenous in cells; host or cells: HeLa and PC3 cell lysates
# [9] = target: T9, selected panels of kinases in HeLa and PC3 cell lysates (Homo sapiens, UniProt Q09013); assay type: binding; settings: 10 uM; proteome HEL; peptide DIkPDNILLDR; labeling site Lys2
# T9 construct: endogenous in cells; host or cells: HeLa and PC3 cell lysates
# [10] = target: T10, selected panels of kinases in HeLa and PC3 cell lysates (Homo sapiens, UniProt Q53H12); assay type: binding; settings: 10 uM; proteome PC3; peptide […]kGK; labeling site ATP
# T10 construct: endogenous in cells; host or cells: HeLa and PC3 cell lysates
# [11] = target: T11, selected panels of kinases in HeLa and PC3 cell lysates (Homo sapiens, UniProt Q15418); assay type: binding; settings: 10 uM; RSK1 domain1; peptide LTDFGLSkEAIDHEK; proteome HEL; labeling site Activation Loop
# T11 construct: endogenous in cells; host or cells: HeLa and PC3 cell lysates
# [12] = target: T12, selected panels of kinases in HeLa and PC3 cell lysates (Homo sapiens, UniProt P48729); assay type: binding; settings: 10 uM; proteome PC3; peptide DIk[…]; labeling site Lys2
# T12 construct: endogenous in cells; host or cells: HeLa and PC3 cell lysates
# [13] = target: T13, selected panels of kinases in HeLa and PC3 cell lysates (Homo sapiens, UniProt Q8TBX8); assay type: binding; settings: 10 uM, PIP4K2C, labeling site ATP
# T13 construct: endogenous in cells; host or cells: HeLa and PC3 cell lysates
# T13 sequence (Q8TBX8 1-421): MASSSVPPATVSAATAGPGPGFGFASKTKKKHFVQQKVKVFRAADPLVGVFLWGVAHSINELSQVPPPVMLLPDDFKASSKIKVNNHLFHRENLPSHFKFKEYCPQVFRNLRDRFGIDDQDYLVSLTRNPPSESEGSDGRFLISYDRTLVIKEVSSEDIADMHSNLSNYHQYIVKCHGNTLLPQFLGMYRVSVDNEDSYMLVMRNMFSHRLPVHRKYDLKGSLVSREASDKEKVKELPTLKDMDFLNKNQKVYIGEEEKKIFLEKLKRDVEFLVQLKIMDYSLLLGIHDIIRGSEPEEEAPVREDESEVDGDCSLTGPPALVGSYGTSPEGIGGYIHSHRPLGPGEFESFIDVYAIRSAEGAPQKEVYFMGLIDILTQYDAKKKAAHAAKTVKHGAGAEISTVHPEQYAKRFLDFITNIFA
# [14] = tested on: selected panels of kinases in HeLa and PC3 cell lysates; assay type: binding, human; settings: 10 uM; for % Inhibition PI4KA,PI4KAP2: peptide SGTPMQSAAkAPYLAK, labeling site ATP; for % Inhibiton, MAP3K2,MAP3K3: peptide DIkGANILR; for % Inhibiton, IKKe,TBK1: peptide DIkPGNIMR; for % Inhibiton, JNK1,JNK2,JNK3: peptide DLkPSNIVVK; for % Inhibiton, MAP2K1,MAP2K2: peptide DVkPSNILVNSR
# [15] = peptide DLk[…], proteome PC3, labeling site Lys2
# [16] = peptide DIk[…], proteome HEL, labeling site Lys2
# [17] = peptide DIk[…], proteome PC3, labeling site Lys2
# [18] = proteome HEL, labeling site Lys2
# [19] = proteome HEL, peptide DLk[…], labeling site Lys2
# [20] = proteome PC3, labeling site Lys2
# [21] = proteome PC3, peptide DIk[…], labeling site Lys2
# [22] = proteome PC3, peptide DLk[…], labeling site Lys2
# T5 sequence (P00533 25-1210): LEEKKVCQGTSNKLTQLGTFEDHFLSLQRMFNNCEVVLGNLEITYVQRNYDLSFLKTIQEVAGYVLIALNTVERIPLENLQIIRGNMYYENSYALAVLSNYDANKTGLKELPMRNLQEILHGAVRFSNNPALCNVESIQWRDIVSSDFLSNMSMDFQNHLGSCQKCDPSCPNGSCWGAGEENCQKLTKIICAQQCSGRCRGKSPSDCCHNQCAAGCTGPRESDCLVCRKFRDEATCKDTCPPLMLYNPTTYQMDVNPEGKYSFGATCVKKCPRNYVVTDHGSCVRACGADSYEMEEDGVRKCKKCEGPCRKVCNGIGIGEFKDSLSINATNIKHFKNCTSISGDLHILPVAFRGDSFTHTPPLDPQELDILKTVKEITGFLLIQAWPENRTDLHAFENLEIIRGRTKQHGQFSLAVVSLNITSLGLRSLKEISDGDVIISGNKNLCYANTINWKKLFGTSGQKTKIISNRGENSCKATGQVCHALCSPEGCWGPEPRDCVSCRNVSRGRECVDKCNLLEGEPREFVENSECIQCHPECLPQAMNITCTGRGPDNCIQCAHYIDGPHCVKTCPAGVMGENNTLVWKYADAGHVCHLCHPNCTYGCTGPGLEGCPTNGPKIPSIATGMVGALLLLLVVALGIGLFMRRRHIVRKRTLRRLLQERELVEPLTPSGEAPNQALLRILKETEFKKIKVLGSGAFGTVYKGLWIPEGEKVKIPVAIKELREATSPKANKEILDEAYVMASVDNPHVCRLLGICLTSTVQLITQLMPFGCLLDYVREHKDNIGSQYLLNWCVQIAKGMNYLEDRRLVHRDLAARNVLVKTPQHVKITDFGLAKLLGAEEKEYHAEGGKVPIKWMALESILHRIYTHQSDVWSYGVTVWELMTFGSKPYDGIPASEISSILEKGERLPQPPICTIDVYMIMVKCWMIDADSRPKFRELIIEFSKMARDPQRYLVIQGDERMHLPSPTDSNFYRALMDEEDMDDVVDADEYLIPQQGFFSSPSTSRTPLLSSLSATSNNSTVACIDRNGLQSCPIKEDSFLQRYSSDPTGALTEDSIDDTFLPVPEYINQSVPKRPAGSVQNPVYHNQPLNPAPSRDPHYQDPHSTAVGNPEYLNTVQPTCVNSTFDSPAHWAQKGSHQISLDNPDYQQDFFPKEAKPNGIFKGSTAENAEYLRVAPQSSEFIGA
# T8 sequence (P51812 whole entry): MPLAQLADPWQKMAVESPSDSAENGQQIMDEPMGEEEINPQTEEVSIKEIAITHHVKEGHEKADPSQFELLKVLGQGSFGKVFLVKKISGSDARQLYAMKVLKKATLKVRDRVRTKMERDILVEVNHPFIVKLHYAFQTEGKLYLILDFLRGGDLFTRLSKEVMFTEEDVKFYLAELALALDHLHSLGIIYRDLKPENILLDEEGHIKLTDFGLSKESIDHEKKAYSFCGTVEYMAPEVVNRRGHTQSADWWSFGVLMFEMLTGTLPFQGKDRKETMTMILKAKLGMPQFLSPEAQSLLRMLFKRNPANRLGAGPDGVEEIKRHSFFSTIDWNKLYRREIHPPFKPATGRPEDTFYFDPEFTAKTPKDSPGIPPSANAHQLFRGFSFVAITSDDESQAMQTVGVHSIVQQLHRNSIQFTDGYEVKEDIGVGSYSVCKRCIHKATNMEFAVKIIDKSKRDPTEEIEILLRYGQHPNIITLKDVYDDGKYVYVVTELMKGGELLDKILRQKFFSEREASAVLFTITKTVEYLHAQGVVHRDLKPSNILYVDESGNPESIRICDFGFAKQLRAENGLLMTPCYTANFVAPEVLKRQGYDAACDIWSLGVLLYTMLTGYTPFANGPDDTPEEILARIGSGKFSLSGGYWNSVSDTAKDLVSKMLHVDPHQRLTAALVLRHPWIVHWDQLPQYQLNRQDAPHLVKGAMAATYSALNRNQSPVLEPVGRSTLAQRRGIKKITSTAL
# T2 sequence (Q9H2G2 whole entry): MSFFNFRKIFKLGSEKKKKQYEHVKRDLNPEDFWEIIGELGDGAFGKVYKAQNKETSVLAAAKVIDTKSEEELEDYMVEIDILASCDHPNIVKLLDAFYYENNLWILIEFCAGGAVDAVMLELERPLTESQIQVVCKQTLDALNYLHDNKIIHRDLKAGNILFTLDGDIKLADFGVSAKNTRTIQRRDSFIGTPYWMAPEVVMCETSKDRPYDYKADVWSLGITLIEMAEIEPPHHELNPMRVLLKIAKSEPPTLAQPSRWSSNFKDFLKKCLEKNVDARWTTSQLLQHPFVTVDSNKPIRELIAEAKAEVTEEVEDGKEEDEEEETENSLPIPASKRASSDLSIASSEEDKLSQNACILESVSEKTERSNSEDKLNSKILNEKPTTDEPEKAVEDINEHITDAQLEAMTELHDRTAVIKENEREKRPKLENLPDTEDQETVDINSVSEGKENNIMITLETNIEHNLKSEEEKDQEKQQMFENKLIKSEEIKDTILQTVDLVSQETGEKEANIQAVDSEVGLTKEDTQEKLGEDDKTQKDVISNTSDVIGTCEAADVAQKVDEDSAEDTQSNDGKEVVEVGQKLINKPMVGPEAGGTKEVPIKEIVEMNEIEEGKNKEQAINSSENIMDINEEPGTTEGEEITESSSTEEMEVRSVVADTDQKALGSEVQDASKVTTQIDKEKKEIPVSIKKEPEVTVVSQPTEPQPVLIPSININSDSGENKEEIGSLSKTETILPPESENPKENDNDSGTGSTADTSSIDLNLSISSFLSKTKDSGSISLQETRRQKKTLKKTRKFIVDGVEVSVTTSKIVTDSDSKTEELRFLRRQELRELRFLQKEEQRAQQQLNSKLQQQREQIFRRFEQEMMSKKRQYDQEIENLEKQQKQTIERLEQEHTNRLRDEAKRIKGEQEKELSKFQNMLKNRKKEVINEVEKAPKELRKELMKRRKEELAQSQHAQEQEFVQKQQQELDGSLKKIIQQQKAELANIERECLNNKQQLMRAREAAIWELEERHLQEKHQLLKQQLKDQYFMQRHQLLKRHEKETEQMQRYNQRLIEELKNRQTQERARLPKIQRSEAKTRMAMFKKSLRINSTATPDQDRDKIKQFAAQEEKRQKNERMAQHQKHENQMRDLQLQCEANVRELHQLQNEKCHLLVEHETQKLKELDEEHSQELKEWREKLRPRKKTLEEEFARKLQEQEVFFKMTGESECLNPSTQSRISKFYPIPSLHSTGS
# T1 sequence (P08581 25-1390): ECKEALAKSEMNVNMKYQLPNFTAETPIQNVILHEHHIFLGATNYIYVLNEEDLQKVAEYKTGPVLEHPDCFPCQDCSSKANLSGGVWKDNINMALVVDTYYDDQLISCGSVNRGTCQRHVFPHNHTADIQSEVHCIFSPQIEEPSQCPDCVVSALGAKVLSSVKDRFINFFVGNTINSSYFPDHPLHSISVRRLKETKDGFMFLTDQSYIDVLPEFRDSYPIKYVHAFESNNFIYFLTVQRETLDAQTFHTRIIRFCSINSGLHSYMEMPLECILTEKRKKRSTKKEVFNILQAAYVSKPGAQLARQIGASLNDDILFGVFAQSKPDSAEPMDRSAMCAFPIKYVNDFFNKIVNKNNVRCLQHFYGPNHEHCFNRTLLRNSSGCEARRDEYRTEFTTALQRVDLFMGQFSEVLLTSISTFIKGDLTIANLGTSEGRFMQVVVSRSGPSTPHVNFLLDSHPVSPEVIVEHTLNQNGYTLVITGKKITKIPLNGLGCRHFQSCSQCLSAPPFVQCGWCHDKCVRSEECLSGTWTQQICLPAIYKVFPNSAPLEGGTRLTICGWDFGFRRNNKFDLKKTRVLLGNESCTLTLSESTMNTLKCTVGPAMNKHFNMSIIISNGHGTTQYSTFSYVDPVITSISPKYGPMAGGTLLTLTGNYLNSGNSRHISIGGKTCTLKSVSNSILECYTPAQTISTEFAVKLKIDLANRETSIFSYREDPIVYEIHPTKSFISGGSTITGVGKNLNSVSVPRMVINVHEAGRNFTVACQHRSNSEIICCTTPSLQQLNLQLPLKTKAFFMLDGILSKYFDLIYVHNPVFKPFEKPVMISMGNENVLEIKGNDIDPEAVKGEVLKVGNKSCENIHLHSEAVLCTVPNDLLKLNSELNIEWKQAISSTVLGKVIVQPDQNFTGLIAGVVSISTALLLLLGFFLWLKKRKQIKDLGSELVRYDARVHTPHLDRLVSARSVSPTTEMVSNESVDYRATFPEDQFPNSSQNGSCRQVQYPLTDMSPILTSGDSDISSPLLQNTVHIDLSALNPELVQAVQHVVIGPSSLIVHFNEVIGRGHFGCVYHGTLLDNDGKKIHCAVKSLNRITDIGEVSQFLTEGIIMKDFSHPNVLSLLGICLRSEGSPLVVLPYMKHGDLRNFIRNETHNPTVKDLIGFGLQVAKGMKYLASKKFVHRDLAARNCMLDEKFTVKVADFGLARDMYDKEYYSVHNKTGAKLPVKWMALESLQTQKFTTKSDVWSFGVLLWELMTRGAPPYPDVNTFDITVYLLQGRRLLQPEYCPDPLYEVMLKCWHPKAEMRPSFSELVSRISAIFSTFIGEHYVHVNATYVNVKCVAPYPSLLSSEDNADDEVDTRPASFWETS
# T3 sequence (P53350 whole entry): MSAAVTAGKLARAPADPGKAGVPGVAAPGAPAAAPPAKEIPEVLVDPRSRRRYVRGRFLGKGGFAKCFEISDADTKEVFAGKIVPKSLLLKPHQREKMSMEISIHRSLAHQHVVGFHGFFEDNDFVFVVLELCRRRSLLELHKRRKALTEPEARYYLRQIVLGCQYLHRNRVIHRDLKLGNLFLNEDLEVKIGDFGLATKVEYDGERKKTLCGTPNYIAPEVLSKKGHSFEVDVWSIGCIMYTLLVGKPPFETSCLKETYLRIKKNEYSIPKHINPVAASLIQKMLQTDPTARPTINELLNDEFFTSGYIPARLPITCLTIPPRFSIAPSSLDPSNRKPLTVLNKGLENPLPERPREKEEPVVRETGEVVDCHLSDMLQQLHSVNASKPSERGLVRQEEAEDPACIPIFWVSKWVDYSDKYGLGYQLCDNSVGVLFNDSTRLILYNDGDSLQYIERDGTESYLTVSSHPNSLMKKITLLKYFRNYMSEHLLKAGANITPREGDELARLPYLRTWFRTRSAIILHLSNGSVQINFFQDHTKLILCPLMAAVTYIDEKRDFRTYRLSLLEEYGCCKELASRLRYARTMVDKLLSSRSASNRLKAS
structure (smiles),measurement,setting,value
CCOc1cc(C(=O)N2CCC(N3CCN(C)CC3)CC2)ccc1Nc1ncc2c(n1)N(C1CCCC1)c1ccccc1C(=O)N2C [Compound 26],"% Inhibiton, MET",[1]; peptide DMYDkEYYSVHNK,-12.7%
same,"% Inhibiton, MET",[1]; peptide […]kTGAK,9.2%
same,% Inhibition SLK,"[2]; peptide DLk[…], proteome HEL, labeling site Lys2",25.7%
same,% Inhibition SLK,[2]; [15],2.9%
same,% Inhibition SLK,"[2]; peptide ETSVLAAAkVIDTK, proteome PC3, labeling site Lys1",-35.8%
same,% Inhibition PLK1,[3],23.9%
same,"% Inhibiton, CASK",[4],-36.1%
same,"% Inhibiton, EGFR","[5]; peptide IPVAIkELR, labeling site Lys1",-3.3%
same,"% Inhibiton, EGFR","[5]; peptide ITDFGLAkLLGAEEK, labeling site Activation Loop",-5.7%
same,"% Inhibiton, EGFR","[5]; peptide […]kVPIK, labeling site Activation Loop",-8.1%
same,"% Inhibiton, HPK1",[6],-10.9%
same,"% Inhibiton, MAP3K1",[7],2.2%
same,% Inhibition RSK2 domain1,"[8]; RSK2 domain1, peptide LTDFGLSkESIDHEKK, proteome HEL, labeling site Activation Loop",7.2%
same,% Inhibition RSK2 domain2,[8]; [15],-0.5%
same,% Inhibition RSK2 domain2,"[8]; peptide Sk[…], proteome HEL, labeling site Protein Kinase Domain",7.4%
same,% Inhibition RSK2 domain2,"[8]; peptide Sk[…], proteome PC3, labeling site Protein Kinase Domain",-14.6%
same,"% Inhibiton, DMPK1",[9],29.4%
same,"% Inhibiton, AGK",[10],15.3%
same,% Inhibition RSK1 domain1,[11],5.6%
same,"% Inhibiton, CK1a",[12],-0.3%
same,% Inhibition PIP4K2C,"[13]; peptide ELPTLkDMDFLNK, proteome PC3",-6.2%
same,% Inhibition PIP4K2C,"[13]; peptide TLVIk[…], proteome HEL",4.7%
same,% Inhibition PIP4K2C,"[13]; peptide TLVIk[…], proteome PC3",-5.8%
same,"% Inhibition PI4KA,PI4KAP2",[14]; proteome HEL,-4.3%
same,"% Inhibition PI4KA,PI4KAP2",[14]; proteome PC3,-19.2%
same,"% Inhibition PKCa,PKCb","[14]; PKCa,PKCb, peptide DLk[…], proteome PC3, labeling site Lys2",-2.9%
same,"% Inhibition PKD1,PKD2","[14]; PKD1,PKD2, peptide NIVHCDLk[…], proteome HEL, labeling site Lys2",16.4%
same,"% Inhibition ROCK1,ROCK2","[14]; ROCK1,ROCK2, peptide DVkPDNMLLDK, proteome PC3, labeling site Lys2",-4.8%
same,"% Inhibition RSK1,RSK2 domain1","[14]; RSK1,RSK2 domain1, peptide DLk[…], proteome HEL, labeling site Lys2",13.4%
same,"% Inhibition RSK1,RSK4 domain1","[14]; RSK1,RSK4 domain1, peptide VLGQGSFGkVFLVR, proteome HEL, labeling site ATP Loop",0.4%
same,"% Inhibition SRPK1,SRPK2","[14]; SRPK1,SRPK2, peptide FVAMkVVK, proteome PC3, labeling site Lys1",-3.7%
same,"% Inhibition TAO1,TAO3",[14]; [16],-15.8%
same,"% Inhibition TAO1,TAO3",[14]; [17],1.7%
same,"% Inhibition Wnk1,Wnk2,Wnk3","[14]; Wnk1,Wnk2,Wnk3, peptide DLk[…], proteome HEL, labeling site Lys2",1.8%
same,"% Inhibition Wnk1,Wnk2,Wnk4","[14]; Wnk1,Wnk2,Wnk4, peptide IGDLGLATLkR, proteome PC3, labeling site Activation Loop",-6.2%
same,"% Inhibition ZC1/HGK,ZC2/TNIK,ZC3/MINK",[14]; [16],-1.1%
same,"% Inhibition ZC1/HGK,ZC2/TNIK,ZC3/MINK",[14]; [17],-12.1%
same,"% Inhibition p70S6K,p70S6Kb","[14]; p70S6K,p70S6Kb, peptide GGYGkVFQVR, proteome PC3, labeling site ATP Loop",-1%
same,"% Inhibiton, MAP3K2,MAP3K3",[14]; [18],-4.4%
same,"% Inhibiton, IKKe,TBK1",[14]; [18],-55%
same,"% Inhibiton, NEK6,NEK7","[14]; proteome HEL, peptide DIk[…], labeling site Lys2",6.4%
same,"% Inhibiton, JNK1,JNK2,JNK3",[14]; [18],14%
same,"% Inhibiton, AMPKa1,AMPKa2",[14]; [19],-22.8%
same,"% Inhibiton, MARK2,MARK3",[14]; [19],-16.8%
same,"% Inhibiton, MAST2,MAST4",[14]; [19],-23.7%
same,"% Inhibiton, p38d,p38g",[14]; [19],-11.7%
same,"% Inhibiton, MAP2K1,MAP2K2",[14]; [18],17.5%
same,"% Inhibiton, MYO3A,MYO3B","[14]; proteome HEL, peptide DVk[…], labeling site Lys2",11.5%
same,"% Inhibiton, BMX,BTK","[14]; proteome HEL, peptide GQYDVAIkMIK, labeling site Lys1",-22.5%
same,"% Inhibiton, MAP3K5,MAP3K6,MAP3K7","[14]; proteome HEL, peptide IAIkEIPERDSR, labeling site Lys1",2%
same,"% Inhibiton, KSR1,KSR2","[14]; proteome HEL, peptide SkNVFYDNGK, labeling site Protein Kinase Domain",12.3%
same,"% Inhibiton, AMPKa1,AMPKa2","[14]; proteome HEL, peptide VAVkILNR, labeling site Lys1",6%
same,"% Inhibiton, MSK1,MSK2 domain1","[14]; proteome HEL, peptide VLGTGAYGkVFLVR, labeling site ATP Loop",7.4%
same,"% Inhibiton, ABL,ARG","[14]; proteome HEL, peptide […]kFPIK, labeling site Activation Loop",-6.4%
same,"% Inhibiton, MAP3K2,MAP3K3",[14]; [20],5.5%
same,"% Inhibiton, IKKe,TBK1",[14]; [20],-4.6%
same,"% Inhibiton, MST1,MST2",[14]; [21],-5.4%
same,"% Inhibiton, MST4,YSK1",[14]; [21],0.5%
same,"% Inhibiton, NEK6,NEK7",[14]; [21],-4.6%
same,"% Inhibiton, CaMK2a,CaMK2b,CaMK2d,CaMK2g","[14]; proteome PC3, peptide DLkPENLLLASK, labeling site Lys2",-3.7%
same,"% Inhibiton, JNK1,JNK2,JNK3",[14]; [20],12.2%
same,"% Inhibiton, AMPKa1,AMPKa2",[14]; [22],12.1%
same,"% Inhibiton, CDK11,CDK8",[14]; [22],7.9%
same,"% Inhibiton, MARK2,MARK3",[14]; [22],3.7%
same,"% Inhibiton, p38d,p38g",[14]; [22],8.3%
same,"% Inhibiton, MAP2K1,MAP2K2",[14]; [20],7.9%
same,"% Inhibiton, CK1d,CK1e","[14]; proteome PC3, peptide DVk[…], labeling site Lys2",13%
same,"% Inhibiton, MARK3,MARK4","[14]; proteome PC3, peptide EVAIkIIDK, labeling site Lys1",0.6%
same,"% Inhibiton, FYN,SRC,YES","[14]; proteome PC3, peptide QGAk[…], labeling site Activation Loop",5.5%
same,"% Inhibiton, AMPKa1,AMPKa2","[14]; proteome PC3, peptide VAVkILNR, labeling site Lys1",6.9%
